Source: patent publication US12383545B1, “Treatment of migraine” (priority 2018, dated 2025)

System: participants with episodic migraine
Test: Study A: Activity Impairment in Migraine-Diary (AIM-D) PDA and PI domain scores
Assay type: in vivo, human
Conditions: for AIM-D Performance of Daily Activities domain score, LSMD vs. placebo (95% CI) / AIM-D Physical Impairment domain score, LSMD vs. placebo (95% CI) / AIM-D Performance of Daily Activities domain score, change from baseline, mean (SD) / AIM-D Physical Impairment domain score, LS mean change (SE): across 12 weeks; for AIM-D Performance of Daily Activities domain score, change from baseline, mean (SD) / AIM-D Physical Impairment domain score, LS mean change (SE) / AIM-D Performance of Daily Activities domain score, Month 1-3, mean (SD): mITT; for AIM-D Performance of Daily Activities domain score, Month 1-3, mean (SD): average across 12-week treatment period
Source text: The Activity in Migraine Diary (AIM-D) evaluates the impact of migraine on the performance of daily activities and physical impairment using an electronic daily diary. In particular, the AIM-D is comprised of two domains that evaluate Performance of Daily Activities (PDA) and Physical Impairment (PI). Assessed items for the AIM-D PDA domain include household chores, errands, leisure activities at home, social or leisure activities outside the home, strenuous physical activities, concentration, and thinking clearly. Assessed items for the AIM-D PI Domain include walking, moving one's body, bending forward, and moving one's head. Response options for each item range from “not difficult at all” to “I could not do it at all” on a 6-point rating scale. The AIM-D domain scores are scaled from 0-100, with higher scores indicating greater impact of migraine, and reductions from baseline in scores indicate improvement. See Cala et al., The Activity Impairment in Migraine-Diary (AIM-D): A Novel Migraine-Specific Patient-Reported Outcome Measure to Assess Functioning Based on Activity Impairment in Episodic and Chronic Migraine Patients, MTIS2018-005 (Sep. 5, 2018).
A secondary endpoint evaluated the change from baseline in mean monthly performance of daily activities domain score of the AIM-D across the 12-week treatment period. Another secondary endpoint evaluated the change from baseline in mean monthly physical impairment domain score of the AIM-D across the 12-week treatment period. The Activity Impairment in Migraine-Diary (AIM-D) is an 11-item daily diary that is comprised of two domains that evaluate Performance of Daily Activities (PDA; 7 items) and Physical Impairment (PI; 4 items). See Cala et al., “The Activity Impairment in Migraine Diary (AIM-D): A novel migraine-specific patient-reported outcome measure to assess functioning based on activity impairment in episodic and chronic migraine patients”, Cephalalgia 2018; 38:1-115, which is incorporated by reference herein in its entirety. In particular, the AIM-D assesses the impact of migraine on the performance of daily activities and physical impairment using a 6-point rating scale ranging from “Not difficult at all,” “A little difficult,” “Somewhat difficult,” “Very Difficult,” “Extremely Difficult”, and “I could not do it at all.” Items assessed for the AIM-D PDA domain included household chores, errands, leisure activities at home, social or leisure activities outside the home, strenuous physical activities, concentration, and thinking clearly. Items assessed for the AIM-D PI Domain included walking, moving body, bending forward, and moving head. Raw domain scores are recalled to a 0 to 100 scale, where higher scores indicate greater impact of migraine, and reductions from baseline in scores indicate improvement. The AIM-D was collected daily via an electronic diary with the same set of questions administered in headache (HA) and non-headache (NHA) versions. Monthly domain scores are calculated by summing the non-missing daily domain scores (HA and NHA days combined) and dividing the number of non-missing daily scores. The secondary endpoints for AIM-D PDA and PI domain scores were evaluated as change from baseline in mean monthly PDA or PI domain scores of the AIM-D across the 12-week treatment period.

C[C@@H]1[C@H](c2c(F)ccc(F)c2F)C[C@H](NC(=O)c2cnc3c(c2)C[C@@]2(C3)C(=O)Nc3ncccc32)C(=O)N1CC(F)(F)F [atogepant]
AIM-D Performance of Daily Activities domain score, LSMD vs. placebo (95% CI) (10 mg QD): −1.19
AIM-D Physical Impairment domain score, LSMD vs. placebo (95% CI) (10 mg QD): −1.08
AIM-D Performance of Daily Activities domain score, change from baseline, mean (SD) (10 mg QD): −7.0
AIM-D Physical Impairment domain score, LS mean change (SE) (10 mg QD): −5.11
AIM-D Performance of Daily Activities domain score, Month 1-3, mean (SD) (10 mg QD): 8.6
AIM-D Performance of Daily Activities domain score, LSMD vs. placebo (95% CI) (30 mg QD): −2.54
AIM-D Physical Impairment domain score, LSMD vs. placebo (95% CI) (30 mg QD): −1.99
AIM-D Performance of Daily Activities domain score, change from baseline, mean (SD) (30 mg QD): −8.9
AIM-D Physical Impairment domain score, LS mean change (SE) (30 mg QD): −6.02
AIM-D Performance of Daily Activities domain score, Month 1-3, mean (SD) (30 mg QD): 8.0
AIM-D Performance of Daily Activities domain score, LSMD vs. placebo (95% CI) (60 mg QD): −3.32
AIM-D Physical Impairment domain score, LSMD vs. placebo (95% CI) (60 mg QD): −2.46
AIM-D Performance of Daily Activities domain score, change from baseline, mean (SD) (60 mg QD): −9.2
AIM-D Physical Impairment domain score, LS mean change (SE) (60 mg QD): −6.49
AIM-D Performance of Daily Activities domain score, Month 1-3, mean (SD) (60 mg QD): 6.6
